# Reference: US5869487A, “Pyrido[3,4-B]pyrazines for use as thrombin inhibitors” (Merck & Co., Inc., priority 1997, dated 1999)
# Biological target: T1, human α-thrombin (Homo sapiens, UniProt P00734)
# T1 construct: Assays of human α-thrombin
# Experiment: In vitro assay for determining proteinase inhibition (human α-thrombin)
# Type: biochemical
# Details: 25° C., 0.05M TRIS buffer pH 7.4, 0.15M NaCl, 0.1% PEG; sar-PR-pna or Z-GPR-afc substrate
# Description: In vitro assay for determining proteinase inhibition
# Assays of human α-thrombin and human trypsin were performed at 25° C. in 0.05M TRIS buffer pH 7.4, 0.15M NaCl, 0.1% PEG. Trypsin assays also contained 1 mM CaCl2.
# In assays wherein rates of hydrolysis of a p-nitroanilide (pna) substrate were determined, a Thermomax 96-well plate reader was used to measure (at 405 nm) the time dependent appearance of p-nitroaniline. sar-PR-pna (sarcosine-Pro-Arg-p-nitroanilide) was used to assay human α-thrombin (Km =125 μM) and human trypsin (Km =59 μM). p-Nitroanilide substrate concentration was determined from measurements of absorbance at 342 nm using an extinction coefficient of 8270 cm^-1 M^-1.
# In certain studies with potent inhibitors (Ki <10 nM) where the degree of inhibition of thrombin was high, a more sensitive activity assay was employed. In this assay the rate of thrombin catalyzed hydrolysis of the fluorogenic substrate Z-GPR-afc (Cbz-Gly-Pro-Arg-7-amino-4-trifluoromethylcoumarin) (Km =27 μM) was determined from the increase in fluorescence at 500 nm (excitation at 400 nm) associated with production of 7-amino-4-trifluoromethyl coumarin. Concentrations of stock solutions of Z-GPR-afc were determined from measurements of absorbance at 380 nm of the 7-amino-4-trifluoromethyl coumarin produced upon complete hydrolysis of an aliquot of the stock solution by thrombin.
# Activity assays were performed by diluting a stock solution of substrate at least tenfold to a final concentration 0.5 Km into a solution containing enzyme or enzyme equilibrated with inhibitor. Times required to achieve equilibration between enzyme and inhibitor were determined in control experiments. Initial velocities of product formation in the absence (Vo) or presence of inhibitor (Vi) were measured. Assuming competitive inhibition, and that unity is negligible compared Km /[S], […] (where [S], [I], and e respectively represent the total concentrations, of substrate, inhibitor and enzyme), the equilibrium constant (Ki) for dissociation of the inhibitor from the enzyme can be obtained from the dependence of Vo /Vi on [I] shown in equation 1.
row,Structure (SMILES),Ki
1,Cc1nc(N)ccc1CNC(=O)Cn1c(C)cc2c(c1=O)NC(=O)[C@H](Cc1ccccc1)N2,< 1 nM
2,Cc1nc(N)ccc1CNC(=O)Cn1c(C)cc2c(c1=O)NC(=O)[C@H](CC1CC1)N2C,< 1 nM
3,Cc1nc(N)ccc1CNC(=O)Cn1c(C)cc2c(c1=O)NC(=O)[C@@H]1CCCCN21,> 1 nM
4,Cc1nc(N)ccc1CNC(=O)Cn1c(C)cc2c(c1=O)NC(=O)CN2Cc1ccccc1,> 1 nM
5,Cc1cc2c(c(=O)n1CC(=O)NCc1cc(Cl)ccc1OCC(=O)NC1CC1)NC(=O)[C@H](Cc1ccccc1)N2,< 1 nM
6,Cc1nc(N)ccc1CNC(=O)Cn1c(C)cc2c(c1=O)NC(=O)[C@H](CC1CC1)N2,< 1 nM
7,Cc1cc2c(c(=O)n1CC(=O)NCc1ccc(N)nc1)NC(=O)[C@H](CC1CC1)N2C,< 1 nM
8,Cc1cc2c(c(=O)n1CC(=O)NCc1ccccc1OCC(=O)NC1CC1)NC(=O)[C@H](CC1CC1)N2C,< 1 nM
